Reference: patent publication US20050148495A1, “Methods and materials including for treating acne” (priority 2003, published 2005)
Converted amounts (≈) assume the structure as drawn. Where two headings read alike, the source gives them in different places. Non-standard residues stand in square brackets, D forms with d. Residues, ends and D or L forms follow the SMILES beside them. d1Nal = N[C@H](Cc1cccc2ccccc12)C(=O)O

Tests used:
P. aeruginosa = type: cell-based, Pseudomonas aeruginosa
Experimental: Control tubes containing only water or formulation buffer were prepared for each isolate. Initial growth controls were determined by removing 10 μL from the water control tube and diluting it by 100 fold. From this dilution, 10 μL was used for inoculation and for spreading over the surface onto Laked Blood Agar (LBA) (Anaerobe Systems, Morgan Hill, Calif.) plates. The tubes and plates were incubated in an anaerobic atmosphere at 37° C. for 48 h. […] MBC50 and 90 values represent where 50 and 90%, respectively, of the tested strain's MBC values are equal to or less than the indicated concentration.

Clostridium difficile = Clostridium difficile 9689
[1] = tested on: intact and abraded skin of New Zealand White rabbits; experiment: Rabbit primary skin irritation test (Draize); type: in vivo; conditions: 4 hour exposure
Experimental: XMP.629 was evaluated for any potential dermal irritant effects in the rabbit primary skin irritation test for this dermal irritation study, XMP.629 was tested on intact and abraded skin in three New Zealand White rabbits. All animals received 0.5 mL of XMP.629 on each intact and abraded dorsal skin application site. This was accomplished by placing a gauze patch directly on the skin of each application site and saturating the patch with 0.5 mL of the XMP.629 solution. The application sites were then wrapped with gauze bandaging and non-irritating semi-occlusive tape. Elizabethan collars were then applied for the 4 hour exposure period. At the end of the 4 hour exposure period, the collars and wrappings were removed and any residual XMP.629 removed. The test sites were evaluated using the standard Draize scoring system (Draize et al., 1944, J. Pharmacol, Exp. Ther. 82: 377-390) for erythema and edema within 30 to 60 minutes and 24, 48, and 72 hours following patch removal.

[2] = tested on: conscious telemetered cynomolgus monkeys; experiment: Cardiovascular safety pharmacology test, intravenous infusion, telemetry; type: in vivo, cynomolgus monkey
Experimental: This safety pharmacology test was performed to assess the possible cardiovascular effects of XMP.629 when administered via intravenous infusion. The test was an acute experiment to identify single-dose-induced side-effects as indicated, for example, in the Guideline for General Pharmacology Studies (Japan Ministry of Health and Welfare PAB/NND Notification No. 4, Jan. 29, 1995, the disclosure of which is incorporated herein by reference).
A telemetry device/transmitter (Data Sciences, St. Paul, Minn.) was surgically implanted in the subcutaneous pocket over the mid-abdominal region into the test monkeys. The blood pressure catheter of the telemetry device was run sub-cutaneously to the left groin region and inserted into the left femoral artery, with the catheter tip placed into the abdominal aorta. In addition, electrocardiogram leads were sub-cutaneously tunneled to the appropriate anatomical regions (i.e. negative lead paced at the base of the right side of the neck and the positive lead placed within the 5th intercostals space on the left side of the thoracic cage, near the sternum).
Intravenous administration of XMP.629 was given to conscious cynomolgus primates (four males) via telemetry systems in a series of 4 acute experiments, in which escalating doses were administered over four days, with a 3 to 27-day washout period between doses. Doses were administered over a two-hour period, at a rate of 2 mL/kg/hr. The vehicle, 10 mM sodium acetate buffer, was administered on Day 0, and XMP.629 at dose levels of 5, 10, and 20 mg/kg/2 hrs on days 4, 7, and 34, respectively. The infused volume per dose was calculated using the most recent body weight measurements.
Viability checks were performed twice daily on the animals. Body weights were obtained from the animals on the day of surgery and one or two days prior to each dose. Cardiovascular assessments and body temperature measurements were collected radiotelemetrically using the implanted telemetry device/transmitter for one 24 hour period prior to the Day 0 dosing session at the same frequency/periods collected on the days of dosing. On each day of dosing, the effect of XMP.629 on various physiological parameters, such as blood pressure waveform, systolic pressure, diastolic pressure, mean pressure, ECG (axial lead) waveform, heart rate, body temperature, QA interval, P-R interval, QRS interval, QT interval, R—R interval, and QTC interval, was observed two hours before the dosing period, every five minutes for 120 minutes during each infusion period, and for 22 hours after termination of infusion (once every five minutes for one hour and then once every 30 minutes for the remaining 21 hours). […]

Macrococcus caseolyticus = Macrococcus caseolyticus 29750
[3] = [3H]-labeled XMP.629, 0.3 mg/kg intravenous, estimate
[4] = tested on: marginal ear vein of rabbits; experiment: Intravenous efficacy tests in rabbits (local vein findings); type: in vivo, rabbit; conditions: multiple infusions, 1-20 mg/kg/day
Experimental: A series of efficacy studies with XMP.629 was conducted where slow IV push or short term (5 to 30 min) intravenous infusions were given through the marginal ear vein at 0.1 to 1.0 mg/mL to rabbits, some of whom were previously infected with Staphylococcus aureus, E. coli, or other bacteria, or Candida albicans. […] Due to the swelling, the veins could not be infused after two to five administrations of 1-20 mg/kg/day of XMP.629. […] Secondary changes in the surrounding tissue included edema, regional fibroplasia, acute hemorrhage, and regional hemorrhagic necrosis, as well as the presence of inflammation. These macroscopic changes were similar to the changes observed in the tail veins of rats and mice in other efficacy studies conducted.

SMILES: CC(C)C[C@@H](NC(=O)[C@H](N)CCCCN)C(=O)N[C@H](Cc1ccccc1)C(=O)N[C@H](CCCNC(=N)N)C(=O)N[C@H](Cc1cccc2ccccc12)C(=O)N[C@H](CCC(N)=O)C(=O)N[C@H](C)C(=O)N[C@H](CCCCN)C(=O)N[C@H](Cc1cccc2ccccc12)C(N)=O [XMP.629, NH2-lys-leu-phe-arg-(3-(1-naphthyl)-ala)-gln-ala-lys-(3-(1-naphthyl)-ala)-CONH2] (H-[dK][dL][dF][dR][d1Nal][dQ][dA][dK][d1Nal]-NH2)
- Minimum Inhibitory Concentrations (Staphylococcus aureus; Staphylococcus aureus 6258): 2.00 µg/mL
- Minimum Inhibitory Concentrations (Staphylococcus aureus; Staphylococcus aureus 11371): 2.00 µg/mL
- Minimum Inhibitory Concentrations (Staphylococcus aureus; Staphylococcus aureus 12598): 2.00 µg/mL
- Minimum Inhibitory Concentrations (Staphylococcus aureus; Staphylococcus aureus 19636): 2.00 µg/mL
- Minimum Inhibitory Concentrations (Staphylococcus aureus; Staphylococcus aureus BAA-38 (MRSA)): 2.00 µg/mL
- Minimum Inhibitory Concentrations (Streptococcus pneumoniae; Streptococcus pneumoniae 6303): 8.00 µg/mL
- Minimum Inhibitory Concentrations (Streptococcus pneumoniae; Streptococcus pneumoniae 10031): 8.00 µg/mL
- Minimum Inhibitory Concentrations (Streptococcus pneumoniae; Streptococcus pneumoniae 35088): 2.00 µg/mL
- MIC90, XMP.629 data reported as MBC values (P. aeruginosa): 32 µg/mL (≈ 24.9 µM)
- MIC90, XMP.629 data reported as MBC values (P. aeruginosa; in FB (formulation buffer)): 0.5 µg/mL (≈ 0.39 µM)
- Minimum Inhibitory Concentrations (Clostridium difficile): 2.00 µg/mL
- dermal irritation ([1]; abraded skin): only mildly irritating
- dermal irritation ([1]; intact skin): not irritating
- Prolongation in prothrombin and activated partial thromboplastin times with decreases in fibrinogen ([2]; 20 mg/kg/2 hrs): 2 of 4 animals
- heart rate, QA, P-R, QRS, and R-R intervals ([2]; 5, 10, or 20 mg/kg/2 hrs): no effects
- cardiac findings ([2]; 10 or 20 mg/kg/2 hrs): ventricular extrasystoles and premature ventricular beats
- intravenous infusion dose with no adverse, related-effect ([2]; cynomolgus monkey, in vivo, iv): 5 mg/kg/2 hrs
- Minimum Inhibitory Concentrations (Macrococcus caseolyticus): 2.00 µg/mL
- CL (clearance) ([3]; male Sprague-Dawley rats, three compartment model): 358.7 g plasma/hr/kg
- C0 (extrapolated plasma concentration at time 0) ([3]; rat): 2.49 μg equivalents/g
- Vc (volume of distribution of the central compartment) ([3]; rat): 0.121 L/kg
- Vss (volume of distribution at steady state) ([3]; rat): 1.657 L/kg
- t1/2 (average half-life) ([3]; rat): 13.8 min
- t1/2α (α half-life) ([3]; rat): 1.92 min
- t1/2β (β half-life) ([3]; rat): 46.2 min
- t1/2γ (γ half-life) ([3]; rat): 498 min
- gross macroscopic changes at the infused vein [4]: swelling and hemorrhage into the perivascular space
